Drawing on PMC9671208, “Synthesis, biological evaluation, and molecular docking of novel hydroxyzine derivatives as potential AR antagonists” (Frontiers in Chemistry, 2022), this text covers IC50, melting point and inhibition for two molecules.

As usually defined, the IC50 is the midpoint of a concentration-inhibition curve. The melting point is the temperature of the solid-liquid transition.

One data set relates to DU145. Description: CCK-8 cytotoxicity assay, DU145. The format is cell-based, human. The note with it: Homo sapiens, DU-145; DU145 cells, CCK-8, 24 h; mean ± SD of three experiments. The protocol: (§1) Cell proliferation was measured using the CCK-8 assay kit ([Kaspers et al., 1997]; [Kaspers et al., 1998]; [Ding et al., 2010]). Cells were seeded into 96-well plates (>5*10^4) with approximately 100 ul of cell suspension per well and incubated in 37°C incubator for 4 h. Various concentrations of the compounds were then added and incubated for a further 24 h in a 37°C incubator. Finally, 10 ul CCK8 was added and incubated for 0.5–4 h, absorbance at 450 nm was determined. ([Guo et al., 2021]; [He et al., 2022a]; [Hu et al., 2022]).
(§2) The in vitro cytotoxic activity results of the synthesized derivatives 3–17 against human prostate cancer lines (PC-3, LNCaP, and DU145) and the human prostate epithelial cell line (WPMY-1) were evaluated, as shown in Table 1.

In the next data set the test system is WPMY-1. The experiment in a line: CCK-8 cytotoxicity assay, WPMY-1 normal prostate epithelial cells. The note with it: WPMY-1 normal human prostate epithelial cells, CCK-8, 24 h; mean ± SD of three experiments. In kind it is cell-based. The protocol:
as §1, §2

Another data set concerns PC-3. The experiment in a line: CCK-8 cytotoxicity assay, PC-3. The format is cell-based, human. The note with it: Homo sapiens; PC-3 cells, CCK-8, 24 h; mean ± SD of three experiments. Here is the method: as §1, §2
A general note: Formazan colour is commonly taken as a measure of viable cells.

The next data set has as its target T1, AR (Homo sapiens, UniProt P10275).
T1 sequence (P10275 1-920): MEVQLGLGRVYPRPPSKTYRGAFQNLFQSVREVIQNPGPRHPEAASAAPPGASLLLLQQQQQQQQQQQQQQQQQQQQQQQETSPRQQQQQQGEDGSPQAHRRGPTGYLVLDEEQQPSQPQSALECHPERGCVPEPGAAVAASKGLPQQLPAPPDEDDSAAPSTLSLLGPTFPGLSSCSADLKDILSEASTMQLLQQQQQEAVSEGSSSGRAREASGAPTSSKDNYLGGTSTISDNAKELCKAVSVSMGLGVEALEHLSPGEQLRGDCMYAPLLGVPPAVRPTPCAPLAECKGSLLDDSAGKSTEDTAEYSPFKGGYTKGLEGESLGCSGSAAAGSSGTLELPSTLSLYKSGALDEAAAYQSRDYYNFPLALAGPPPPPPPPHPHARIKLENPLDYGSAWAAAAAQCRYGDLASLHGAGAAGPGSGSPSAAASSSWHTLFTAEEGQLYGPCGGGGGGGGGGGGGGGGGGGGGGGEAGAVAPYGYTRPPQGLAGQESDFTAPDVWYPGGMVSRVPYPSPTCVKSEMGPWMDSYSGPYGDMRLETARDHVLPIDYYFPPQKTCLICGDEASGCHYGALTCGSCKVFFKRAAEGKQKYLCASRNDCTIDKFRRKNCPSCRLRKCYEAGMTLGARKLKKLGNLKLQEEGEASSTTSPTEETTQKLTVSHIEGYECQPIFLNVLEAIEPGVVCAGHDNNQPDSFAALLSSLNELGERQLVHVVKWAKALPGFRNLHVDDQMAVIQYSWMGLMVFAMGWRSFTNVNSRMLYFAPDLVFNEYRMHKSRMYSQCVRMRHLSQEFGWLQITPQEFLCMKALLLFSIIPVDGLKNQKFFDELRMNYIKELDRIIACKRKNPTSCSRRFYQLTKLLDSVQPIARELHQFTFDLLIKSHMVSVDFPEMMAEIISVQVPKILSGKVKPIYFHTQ
Description: AR reporter gene (luciferase) assay. In kind it is cell-based. The note with it: read-out: AR antagonistic activity % (10 μM). The protocol:
Firefly and Renilla luciferase activities, were determined using the Dual-Glo™luciferase assay kit. RLUs were determined using the GloMax®96-Microplate Luminometer.
On the technique in general: A reporter such as luciferase makes a cellular process visible.

The subject of the next data set is LNCaP. The experiment in a line: CCK-8 cytotoxicity assay, LNCaP. Conditions: Homo sapiens; LNCaP cells, CCK-8, 24 h; mean ± SD of three experiments. In kind it is cell-based, human. The protocol: as §1, §2

`OCCc1ccc(CN2CCN(Cc3ccc(Cl)cc3)CC2)cc1` [Compound 16, 2-(4-((4-(4-chlorobenzyl)piperazin-1-yl)methyl)phenyl)ethan-1-ol] showed a melting point of 109 to 110 °C. The same molecule registered an IC50 in the data set on DU145 of 31.5 ± 1.21 µM. Besides, the IC50 in the data set on WPMY-1 was greater than 50 µM. The IC50 in the data set with PC-3 came to 14.4 ± 0.35 µM. The inhibition at 10 µM on AR is 60.25 ± 0.35%. Further, the IC50 with LNCaP is 16.4 ± 0.19 µM.
The molecule `OCCc1ccc(CN2CCN(C3c4ccccc4Sc4ccccc43)CC2)cc1` [Compound 17, 2-(4-((4-(9H-thioxanthen-9-yl)piperazin-1-yl)methyl)phenyl)ethan-1-ol] showed a melting point of 121 to 122 °C. In the data set on DU145, this molecule displayed an IC50 of 8.35 ± 0.28 µM. Further, the IC50 with WPMY-1 is greater than 50 µM. Half-maximal inhibition in the data set with PC-3 (IC50) was put at 6.42 ± 0.52 µM. The inhibition at 10 µM at AR turned out to be 36.5 ± 0.79%. Moreover, in the data set with LNCaP, the IC50 is 5.61 ± 0.86 µM.
